Test results: patent publication US9057727B2, “Screening methods using G-protein coupled receptors and related compositions” (The General Hospital Corporation, priority 2007, dated 2015)
Ends that are not written are not given here. Peptide text beside a SMILES is read from it.

target: T1, human PTHR, G protein-uncoupled conformation (R^0) (Homo sapiens, UniProt Q03431); experiment: Competition binding to R0 conformation of hPTHR (COS-7 membranes, GTPγS, 125I-PTH(1-34) tracer); conditions: Table 4; human PTH1 receptor; read-out: R0 binding IC50
T1 construct: expressed in transfected cells; host or cells: COS-7, transient (Fugene-6)
T1 sequence (Q03431 27-593): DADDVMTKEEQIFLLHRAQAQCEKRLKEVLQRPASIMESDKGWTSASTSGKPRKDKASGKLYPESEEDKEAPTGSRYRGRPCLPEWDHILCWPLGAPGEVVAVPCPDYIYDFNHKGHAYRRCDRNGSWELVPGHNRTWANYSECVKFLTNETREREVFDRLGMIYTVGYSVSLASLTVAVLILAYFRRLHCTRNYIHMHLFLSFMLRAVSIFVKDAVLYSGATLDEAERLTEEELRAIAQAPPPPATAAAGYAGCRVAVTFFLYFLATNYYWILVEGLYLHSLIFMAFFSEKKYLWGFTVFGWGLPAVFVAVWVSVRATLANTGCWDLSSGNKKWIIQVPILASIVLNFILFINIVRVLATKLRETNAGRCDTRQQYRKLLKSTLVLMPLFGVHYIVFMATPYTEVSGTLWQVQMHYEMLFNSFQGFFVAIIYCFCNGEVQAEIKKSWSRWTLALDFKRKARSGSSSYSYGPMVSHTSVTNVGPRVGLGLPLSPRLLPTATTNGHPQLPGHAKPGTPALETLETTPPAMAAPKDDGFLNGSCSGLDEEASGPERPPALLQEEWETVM
Protocol: Membranes were prepared from COS-7 cells transfected with the hPTHR alone. GTPγS ([…]) was added to the binding reactions so as to functionally uncouple receptor-heterotrimeric G protein complexes, thus enriching for the R^0 (and R) conformations, relative to RG.
Reactions contained a total membrane protein concentration of 20 to 100 μg/mL, and a total radioactivity concentration of approximately 150,000 cpm/ml. Unlabeled peptide ligands and/or GTPγS (Sigma-Aldrich Inc. St. Louis, Mo.) were added to the reactions as indicated.
Membranes, tracer radioligand, and various concentrations of unlabeled ligands and/or GTPγS were incubated in the wells for 90 minutes, following which, the reaction plates were processed by rapid vacuum filtration to separate bound from free radioligand, as described above. […] For both radioligands, the non-specific binding was determined in reactions containing a saturating concentration of the unlabeled analog of the radioligand. The specifically bound radioactivity was calculated as a percent of the radioactivity specifically bound in the absence of a competing ligand or GTPγS.
To assess the capacities of various unlabeled peptide ligands to bind to the G protein-uncoupled and G protein-coupled PTHR conformations (R^0 and RG, respectively), membranes were prepared from transiently transfected COS-7 cells and the following assay conditions.

IC50 [nM]	Molecule
1.2 ± 0.4	CC[C@H](C)[C@H](NC(=O)[C@H](CCC(=O)O)NC(=O)[C@H](C)NC(=O)[C@@H](NC(=O)[C@H](C)N)C(C)C)C(=O)N[C@@H](CCC(N)=O)C(=O)N[C@@H](CC(C)C)C(=O)N[C@@H](CCSC)C(=O)N[C@@H](Cc1c[nH]cn1)C(=O)N[C@@H](CCC(N)=O)C(=O)N[C@@H](CCCNC(=N)N)C(=O)N[C@@H](C)C(=O)N[C@@H](CCCCN)C(=O)N[C@@H](Cc1c[nH]c2ccccc12)C(=O)N[C@@H](CC(C)C)C(=O)N[C@@H](CC(N)=O)C(=O)N[C@@H](CO)C(=O)N[C@@H](CCSC)C(=O)N[C@@H](CCCNC(=N)N)C(=O)N[C@@H](CCCNC(=N)N)C(=O)N[C@H](C(=O)N[C@@H](CCC(=O)O)C(=O)N[C@@H](Cc1ccccc1)C(=O)N[C@@H](CC(C)C)C(=O)N[C@@H](CCCNC(=N)N)C(=O)N[C@@H](CCCCN)C(=O)N[C@@H](CCCCN)C(=O)N[C@@H](CC(C)C)C(=O)N[C@@H](CCC(N)=O)C(=O)N[C@@H](CC(=O)O)C(=O)N[C@H](C(=O)N[C@@H](Cc1c[nH]cn1)C(=O)N[C@@H](CC(N)=O)C(=O)N[C@@H](Cc1ccccc1)C(=O)O)C(C)C)C(C)C [F23,Mc-PTH(1-34)OH, F^23,Mc-PTH(1-34)OH] (H-AVAEIQLMHQRAKWLNSMRRVEFLRKKLQDVHNF-OH; N-terminus assumed)

same assay, conditions: human PTH receptor on COS-7 cell membranes

R0/RG ratio	Molecule
80	CC[C@H](C)[C@H](NC(=O)[C@H](CCC(=O)O)NC(=O)[C@H](C)NC(=O)[C@@H](NC(=O)[C@H](C)N)C(C)C)C(=O)N[C@@H](CCC(N)=O)C(=O)N[C@@H](CC(C)C)C(=O)N[C@@H](CCSC)C(=O)N[C@@H](Cc1c[nH]cn1)C(=O)N[C@@H](CCC(N)=O)C(=O)N[C@@H](CCCNC(=N)N)C(=O)N[C@@H](C)C(=O)N[C@@H](CCCCN)C(=O)N[C@@H](Cc1c[nH]c2ccccc12)C(=O)N[C@@H](CC(C)C)C(=O)N[C@@H](CC(N)=O)C(=O)N[C@@H](CO)C(=O)N[C@@H](CCSC)C(=O)N[C@@H](CCCNC(=N)N)C(=O)N[C@@H](C)C(=O)N[C@H](C(=O)N[C@@H](CCC(=O)O)C(=O)N[C@@H](Cc1c[nH]c2ccccc12)C(=O)N[C@@H](CC(C)C)C(=O)N[C@@H](CCCNC(=N)N)C(=O)N[C@@H](CCCCN)C(=O)N[C@@H](CCCCN)C(=O)N[C@@H](CC(C)C)C(=O)N[C@@H](CCC(N)=O)C(=O)N[C@@H](CC(=O)O)C(=O)N[C@H](C(=O)N[C@@H](Cc1c[nH]cn1)C(=O)N[C@@H](CC(N)=O)C(=O)N[C@@H](Cc1ccccc1)C(=O)O)C(C)C)C(C)C [A20,Mc-PTH(1-34)OH, A^20,Mc-PTH(1-34)OH] (H-AVAEIQLMHQRAKWLNSMRAVEWLRKKLQDVHNF-OH; N-terminus assumed)
5	CC[C@H](C)[C@H](NC(=O)[C@H](CCC(=O)O)NC(=O)[C@H](C)NC(=O)[C@@H](NC(=O)[C@H](C)N)C(C)C)C(=O)N[C@@H](CCC(N)=O)C(=O)N[C@@H](CC(C)C)C(=O)N[C@@H](CCSC)C(=O)N[C@@H](Cc1c[nH]cn1)C(=O)N[C@@H](CCC(N)=O)C(=O)N[C@@H](CCCNC(=N)N)C(=O)N[C@@H](C)C(=O)N[C@@H](CCCCN)C(=O)N[C@@H](Cc1c[nH]c2ccccc12)C(=O)N[C@@H](CC(C)C)C(=O)N[C@@H](CC(N)=O)C(=O)N[C@@H](CO)C(=O)N[C@@H](CCSC)C(=O)N[C@@H](CCCNC(=N)N)C(=O)N[C@@H](CCCNC(=N)N)C(=O)N[C@H](C(=O)N[C@@H](CCC(=O)O)C(=O)N[C@@H](Cc1ccccc1)C(=O)N[C@@H](CC(C)C)C(=O)N[C@@H](CCCNC(=N)N)C(=O)N[C@@H](CCCCN)C(=O)N[C@@H](CCCCN)C(=O)N[C@@H](CC(C)C)C(=O)N[C@@H](CCC(N)=O)C(=O)N[C@@H](CC(=O)O)C(=O)N[C@H](C(=O)N[C@@H](Cc1c[nH]cn1)C(=O)N[C@@H](CC(N)=O)C(=O)N[C@@H](Cc1ccccc1)C(=O)O)C(C)C)C(C)C [F23,Mc-PTH(1-34)OH, F^23,Mc-PTH(1-34)OH] (H-AVAEIQLMHQRAKWLNSMRRVEFLRKKLQDVHNF-OH; N-terminus assumed)

system: LLCPK1-B64 cells or SaOS-2 cells; experiment: cAMP screen of substituted PTHrP(1-28) analogs (% parent); assay type: cell-based; conditions: parent PTHrP(1-28)NH
Protocol: Alanine substitution at position 18, 22, 25 and 26 increased activity in at least one cell type. These positions were further substituted to various types of amino acids, and cAMP activity was analyzed in LLCPK1-B64 cells (FIG. 27C) or SaOS-2 cells (FIG. 27D). Cells were treated with analogs at 3×10^−9M in the presence of IBMX for 30 minutes at room temperature. Responses for each analog were normalized to the response for the parent (native) PTHrP(1-28) peptide. Alanine substitutions were A^15 to A^17 (SEQ ID NO:152-154), A^18 (SEQ ID NO:34), A^19 to A^21 (SEQ ID NO:155-157), A^22 (SEQ ID NO:39), A^23 to A^25 (SEQ ID NO:158-160), A^26 (SEQ ID NO:46), and A^27 to A^28 (SEQ ID NO:161-162). Substitutions at position 18 were A^18 (SEQ ID NO: 34), G^18 (SEQ ID NO:163), S^18 (SEQ ID NO:35), M^18 (SEQ ID NO:36), L^18 (SEQ ID NO:164), F^18 (SEQ ID NO:37), N^18 (SEQ ID NO:165), E^18 (SEQ ID NO:38), and K^18 (SEQ ID NO:166). Substitutions at position 22 were A^22 (SEQ ID NO:39), G^22 (SEQ ID NO:167), and S^22 to K^22 (SEQ ID NO:40-45). Substitutions at position 26 were A^26 (SEQ ID NO:46), G^26 (SEQ ID NO:168), S^26 (SEQ ID NO:47), L^26 (SEQ ID NO:169), N^26 (SEQ ID NO:48), W^26 to E^26 (SEQ ID NO:170-171), and K^26 to R^26 (SEQ ID NO:49-50). Substitutions at position 25 were G^25 to S^25 (SEQ ID NO:172-173), L^25 (SEQ ID NO:51), N^25 (SEQ ID NO:174), W^25 (SEQ ID NO:52), E^25 (SEQ ID NO:175), and K^25 to R^25 (SEQ ID NO:53-54). […]

Molecule	screen cAMP (% parent)
A18,22,F25,K26-PTHrP(1-28) (AVSEHQLLHDKGKSIQDARRRAFLFKLI-NH2) [A18, 22, F25, K26-PTHrP(1-28)NH]	337
A18,22,I25,K26-PTHrP(1-28) (AVSEHQLLHDKGKSIQDARRRAFLIKLI-NH2) [A18, 22, I25, K26-PTHrP(1-28)NH]	342
A18,22,W25,K26-PTHrP(1-28) (AVSEHQLLHDKGKSIQDARRRAFLWKLI-NH2) [A18, 22, W25, K26-PTHrP(1-28)NH]	329
A18-PTHrP(1-28) (AVSEHQLLHDKGKSIQDARRRFFLHHLI-NH2) [A18-PTHrP(1-28)NH]	164
A22-PTHrP(1-28) (AVSEHQLLHDKGKSIQDLRRRAFLHHLI-NH2) [A22-PTHrP(1-28)NH]	185
A26-PTHrP(1-28) (AVSEHQLLHDKGKSIQDLRRRFFLHALI-NH2) [A26-PTHrP(1-28)NH]	142
E18,A22,26-PTHrP(1-28) (AVSEHQLLHDKGKSIQDERRRAFLHALI-NH2) [E18, A22, 26-PTHrP(1-28)NH]	190
E18,S22,K25,26-PTHrP(1-28) (AVSEHQLLHDKGKSIQDERRRSFLKKLI-NH2) [E18, S22, K25, 26-PTHrP(1-28)NH]	335
E18-PTHrP(1-28) (AVSEHQLLHDKGKSIQDERRRFFLHHLI-NH2) [E18-PTHrP(1-28)NH]	140
E22-PTHrP(1-28) (AVSEHQLLHDKGKSIQDLRRREFLHHLI-NH2) [E22-PTHrP(1-28)NH]	121
F18-PTHrP(1-28) (AVSEHQLLHDKGKSIQDFRRRFFLHHLI-NH2) [F18-PTHrP(1-28)NH]	109
K22-PTHrP(1-28) (AVSEHQLLHDKGKSIQDLRRRKFLHHLI-NH2) [K22-PTHrP(1-28)NH]	150
K25-PTHrP(1-28) (AVSEHQLLHDKGKSIQDLRRRFFLKHLI-NH2) [K25-PTHrP(1-28)NH]	163
K26-PTHrP(1-28) (AVSEHQLLHDKGKSIQDLRRRFFLHKLI-NH2) [K26-PTHrP(1-28)NH]	142
L22-PTHrP(1-28) (AVSEHQLLHDKGKSIQDLRRRLFLHHLI-NH2) [L22-PTHrP(1-28)NH]	142
L25-PTHrP(1-28) (AVSEHQLLHDKGKSIQDLRRRFFLLHLI-NH2) [L25-PTHrP(1-28)NH]	325
M18-PTHrP(1-28) (AVSEHQLLHDKGKSIQDMRRRFFLHHLI-NH2) [M18-PTHrP(1-28)NH]	113
N22-PTHrP(1-28) (AVSEHQLLHDKGKSIQDLRRRNFLHHLI-NH2) [N22-PTHrP(1-28)NH]	138
N26-PTHrP(1-28) (AVSEHQLLHDKGKSIQDLRRRFFLHNLI-NH2) [N26-PTHrP(1-28)NH]	113
R25-PTHrP(1-28) (AVSEHQLLHDKGKSIQDLRRRFFLRHLI-NH2) [R25-PTHrP(1-28)NH]	204
R26-PTHrP(1-28) (AVSEHQLLHDKGKSIQDLRRRFFLHRLI-NH2) [R26-PTHrP(1-28)NH]	143
S18-PTHrP(1-28) (AVSEHQLLHDKGKSIQDSRRRFFLHHLI-NH2) [S18-PTHrP(1-28)NH]	121
S22-PTHrP(1-28) (AVSEHQLLHDKGKSIQDLRRRSFLHHLI-NH2) [S22-PTHrP(1-28)NH]	141
S26-PTHrP(1-28) (AVSEHQLLHDKGKSIQDLRRRFFLHSLI-NH2) [S26-PTHrP(1-28)NH]	107
W22-PTHrP(1-28) (AVSEHQLLHDKGKSIQDLRRRWFLHHLI-NH2) [W22-PTHrP(1-28)NH]	129
W25-PTHrP(1-28) (AVSEHQLLHDKGKSIQDLRRRFFLWHLI-NH2) [W25-PTHrP(1-28)NH]	270
